Measured values published in paper PMC8667918, “Synthesis and biological evaluation of halogenated phenoxychalcones and their corresponding pyrazolines as cytotoxic agents in human breast cancer” (Journal of Enzyme Inhibition and Medicinal Chemistry, 2021).
“And” between values parts separate entries of the source, which are not always exact repeats. Equal entries are not always repeated. One block for each compound: values may come before it.

Tests used:
[1] = system: MCF-7 breast cancer cell line; experiment: MTT assay, cytotoxicity against breast cancer cell line MCF-7; settings: for IC50: Homo sapiens, MCF7, 48 h, read-out: In vitro cytotoxicity IC50 MCF-7; for Selectivity index: ratio of IC50 on normal cells (MCF-10a) to cancer cells (MCF-7)
Experimental: (§1) Human breast cancer cell line MCF-7 and normal breast cell line MCF-10a were obtained from American type culture collection, MCF-7 cells were cultured using Dulbecco’s Modified Eagle Medium DMEM (Invitrogen/Life Technologies) supplemented with 10% FBS (Hyclone), 10 µg/ml of insulin (Sigma), and 1% penicillin-streptomycin. MCF-10a cell line was cultured using DMEM medium supplemented with 10% FBS, 1% sodium pyruvate, 1% MEM NEAA, 20 ng/ml human epidermal growth factor (HEGF), 10 μg/ml insulin and 0.05 mM hydrocortisone. The cells were incubated at 37 °C in a humidified atmosphere of 5% CO2.
(§2) The anticancer effect of phenoxychalcones and N-acetylpyrazolines on the viability of both tumour and normal cells was evaluated using МТТ assay as a rapid colorimetric assay. It is based on the ability of mitochondrial dehydrogenases of viable cells to reduce yellow tetrazolium salt MTT to blue formazan in quantities proportional to the number of living cells. The cells were incubated with the medium alone or with the tested compounds at concentrations of 100 µM, 25 µM, 6.25 µM, 1.56 µM and 0.39 µM for 48 h. […] Then, 20 μL MTT solution was added to each well and mixed. After 4 h, the supernatants were removed and 100 μL DMSO was added to each well to dissolve the precipitate. The viability of cells was estimated by measuring the absorbance at 570 nm using a Bioline ELIZA plate reader. The cell viability percentage was calculated based on the absorbance ratio between cell culture treated with the compounds and the untreated control multiplied by 100. Selectivity index (SI) was calculated as the ratio of cytotoxicity (IC50) on normal cells (MCF-10a) to cancer cells (MCF-7).

[2] = MTT assay, cytotoxicity against normal breast cell line MCF-10a; settings: human; for IC50 at 48 h: MCF-10a normal breast cells
Experimental: as §1, §2

[3] = system: MCF-7 cells; experiment: Annexin V-FITC/PI apoptosis assay by flow cytometry; format: cell-based, human; settings: 24 h
Experimental: Apoptosis assessment was carried out by flow cytometry using Annexin V-FITC and propidium iodide double-staining apoptosis detection kit (Biovision, USA) according to the manufacturer instructions. Annexin V is a protein with high affinity for phosphatidylserine (PS). The latter is a cell membrane component that translocate from the inner face of the plasma membrane to the cell surface soon after initiating apoptosis. […] The cells were then collected by centrifugation and re-suspended in 500 μL of binding buffer. Annexin V-FITC and PI double staining was performed by adding 5 μL of Annexin V-FITC and 5 μL of PI. The cells were then incubated in dark, at room temperature for 5 min. After incubation, cell fluorescence was evaluated using FacsCalibur (BD Biosciences, USA). Dot-plot graphs were used to illustrate the results.

[4] = system: MCF-7 cells; experiment: Cell cycle analysis by propidium iodide flow cytometry; format: cell-based, human
Experimental: The cell cycle analysis was carried out by flow cytometry using ab139418_propidium iodide flow cytometry kit/BD (Abcam, Cambridge, UK) according to the manufacturer instructions. […] After treatment, the cells were washed twice with ice-cold phosphate buffer saline (PBS) and collected by centrifugation. The cells were then fixed using ice-cold 66% (v/v) ethanol, washed with PBS, and re-suspended with 0.1 mg/mL RNase to digest cellular RNA and thus minimise stained RNA in the background. The cells were then stained with […] propidium iodide (PI), a fluorescent molecule with the ability to bind to nucleic acid. PI binds to the DNA in cells in proportion to its amount. As the DNA content is different among cells in different phases of cell cycle, the stage of cell growth can be determined based on fluorescence intensity. Cell fluorescence was evaluated using FacsCalibur (BD Biosciences, USA) and analysed using Cell- Quest software (Becton Dickinson)[41]. Cell cycle analysis of MCF-7 cells without any treatment was used as control.

[5] = system: MCF-7 cells; experiment: Intracellular reactive oxygen species (ROS) analysis with H2DCFDA; format: cell-based, human; settings: MCF-7, 1.52 µM
Experimental: Intracellular ROS was detected by cell-permeable fluorogenic probe H2DCFDA. Cell culture subdivided into three groups. The groups are the negative control (untreated MCF-7 cells), the positive control group (MCF-7 cells treated with H2O2), and test group (MCF-7 cells treated with compound 2c). After removing the culture supernatants, the cells were then incubated in fresh medium with 10 µM H2DCFDA at the dark at 37 °C for 1 h. The cells were washed with PBS buffer, then, harvested and the pellets were suspended in PBS. Samples were analysed ROBONIK P2000 ELISA reader wavelength 450 nm.

[6] = system: p38 MAPK (phosphorylated and total) in MCF-7 cells; experiment: p38 MAPK (phosphorylated and total) ELISA in treated cells; format: cell-based, human; settings: MCF-7, 1.52 µM, vs untreated cells
Experimental: Measurements were performed using ELISA kits (R&D systems, Minneapolis, MN, USA ELISA (Cat. # KHO0071) and p38 MAPK (Total) ELISA, according to the manufacturer’s instructions.

[7] = system: MCF-7; settings: reported chalcones of Figure 1; cited from earlier work
[8] = system: leukemia; set-up: method as in PMID 31927336, PMID 22503741; settings: reported chalcone of Figure 1; cited from earlier work
[9] = system: C6 and Hela cell lines; set-up: method as in PMID 31927336, PMID 22503741; settings: reported chalcone of Figure 1; cited from earlier work
[10] = MCF-7, 1.52 µM, in comparison to the control (DMSO)
[11] = MCF-7, 1.52 µM, relative to control (DMSO)

melting point: 150 to 152 °C
Compound: O=C(C=Cc1ccc(Oc2ccc(Br)cc2)cc1)c1ccc(Cl)cc1 [Compound 2a, 3–(4-(4-Bromophenoxy)phenyl)-1–(4-chlorophenyl)prop-2-en-1-one]
IC50 [1]: 8.51 ± 0.16 µM
Selectivity index [1]: 3.92
IC50 at 48 h [2]: 33.4 ± 1.34 µM

melting point: 164 to 166 °C
Compound: O=C(C=Cc1ccc(Oc2ccc(Br)cc2)cc1)c1ccc(Br)cc1 [Compound 2b, 3–(4-(4-Bromophenoxy)phenyl)-1–(4-bromophenyl)prop-2-en-1-one]
IC50 [1]: 13.3 ± 0.53 µM
Selectivity index [1]: 1.91
IC50 at 48 h [2]: 25.3 ± 1.17 µM

Compound: Cc1ccc(C(=O)C=Cc2ccc(Oc3ccc(Br)cc3)cc2)cc1 [Compound 2c, 3–(4-(4-Bromophenoxy)phenyl)-1-(p-tolyl)prop-2-en-1-one]
apoptotic cells percentage, early apoptosis ([3]; MCF-7, 1.52 µM (IC50)): 5.17%
apoptotic cells percentage, late apoptosis ([3]; MCF-7, 1.52 µM (IC50)): 21.96%
percentage necrosis ([3]; MCF-7, 1.52 µM (IC50)): 2.28%
percentage of total apoptosis ([3]; MCF-7, 1.52 µM (IC50)): 29.41%
elevation in late apoptosis, fold more than control ([3]; MCF-7, 1.52 µM): 57.78 fold
increase in early apoptosis, fold more than control ([3]; MCF-7, 1.52 µM): 9.0 fold
increase in total apoptosis, fold compared to the control ([3]; MCF-7, 1.52 µM): 16.24 fold
fold more active than 2a [1]: 5.6 fold
fold more active than 2b [1]: 8.7 fold
IC50 [1]: 1.52 ± 0.03 µM
Selectivity index [1]: 15 and 15.24
IC50 [2]: 23.2 ± 0.88 µM
phase of cell cycle arrest ([4]; MCF-7, 1.52 µM): G2/M phase
cell population %G0/G1 ([4]; MCF-7, 1.52 µM (IC50), 24 h): 24.92%
cell population %G2/M ([4]; MCF-7, 1.52 µM (IC50), 24 h): 45.86%
cell population %Pre G1 ([4]; MCF-7, 1.52 µM (IC50), 24 h): 29.41%
cell population %S ([4]; MCF-7, 1.52 µM (IC50), 24 h): 29.22%
augmentation of proportion of cells in the G2/M phase [4, 10]: 4.25 fold
augmentation of proportion of cells in the pre-G1 phase [4, 10]: 16.24 fold
decline in the cell population at the G0/G1 phase [4, 11]: 54.73%
decline in the cell population at the S phase [4, 11]: 14.5%
ROS induction higher than control [5]: 10%
down-regulation of total p38 MAPK [6]: ~40%
interference with p38 MAPK phosphorylation (decrease of phosphorylated p38 MAPK) [6]: ~60%

melting point: 120 to 122 °C
Compound: O=C(C=Cc1ccc(Oc2ccc(Cl)cc2)cc1)c1ccc(Cl)cc1 [Compound 2d, 3–(4-(4-Chlorophenoxy)phenyl)-1–(4-chlorophenyl)prop-2-en-1-one]
IC50 [1]: 19.9 ± 0.66 µM
Selectivity index [1]: 1.67
IC50 at 48 h [2]: 33.1 ± 1.42 µM

melting point: 143 to 145 °C
Compound: O=C(C=Cc1ccc(Oc2ccc(Cl)cc2)cc1)c1ccc(Br)cc1 [Compound 2e, 1–(4-Bromophenyl)-3–(4-(4-chlorophenoxy)phenyl)prop-2-en-1-one]
IC50 [1]: 44.2 ± 2.16 µM
Selectivity index [1]: 0.50
IC50 at 48 h [2]: 22.1 ± 1.08 µM

melting point: 136 to 138 °C
Compound: Cc1ccc(C(=O)C=Cc2ccc(Oc3ccc(Cl)cc3)cc2)cc1 [Compound 2f, 3–(4-(4-Chlorophenoxy)phenyl)-1-(p-tolyl)prop-2-en-1-one]
IC50 [1]: 1.87 ± 0.02 µM
fold more active than 2e ([1]; MCF-7 IC50 compared with chalcone 2e): 23.6 fold
fold more active than 2d ([1]; MCF-7 IC50 compared with chalcone 2d): 10.6 fold
Selectivity index [1]: 11.03
IC50 at 48 h [2]: 20.6 ± 0.37 µM

melting point: 142 to 144 °C
Compound: CC(=O)N1N=C(c2ccc(Cl)cc2)CC1c1ccc(Oc2ccc(Br)cc2)cc1 (stereo not drawn) [Compound 3a, 1–(5-(4–(4-Bromophenoxy)phenyl)-3–(4-chlorophenyl)-4,5-dihydro-1H-pyrazol-1-yl) ethanone]
IC50 [1]: 10.6 ± 0.39 µM
Selectivity index [1]: 5.29
IC50 at 48 h [2]: 55.8 ± 1.92 µM

melting point: 138 to 140 °C
Compound: CC(=O)N1N=C(c2ccc(Br)cc2)CC1c1ccc(Oc2ccc(Br)cc2)cc1 (stereo not drawn) [Compound 3b, 1–(5-(4–(4-Bromophenoxy)phenyl)-3–(4-bromophenyl)-4,5-dihydro-1H-pyrazol-1-yl) ethanone]
IC50 [1]: 17.2 ± 0.62 µM
Selectivity index [1]: 0.67
IC50 at 48 h [2]: 11.5 ± 0.47 µM

melting point: 141 to 143 °C
Compound: CC(=O)N1N=C(c2ccc(C)cc2)CC1c1ccc(Oc2ccc(Br)cc2)cc1 (stereo not drawn) [Compound 3c, 1–(5-(4–(4-Bromophenoxy)phenyl)-3-(p-tolyl)-4,5-dihydro-1H-pyrazol-1-yl)ethanone]
IC50 [1]: 7.42 ± 0.28 µM
Selectivity index [1]: 2.63
IC50 at 48 h [2]: 19.5 ± 0.69 µM

melting point: 116 to 118 °C
Compound: CC(=O)N1N=C(c2ccc(Cl)cc2)CC1c1ccc(Oc2ccc(Cl)cc2)cc1 (stereo not drawn) [Compound 3d, 1–(5-(4–(4-Chlorophenoxy)phenyl)-3–(4-chlorophenyl)-4,5-dihydro-1H-pyrazol-1-yl) ethanone]
IC50 [1]: 8.51 ± 0.27 µM
Selectivity index [1]: 5.37
IC50 at 48 h [2]: 45.7 ± 1.36 µM

melting point: 117 to 119 °C
Compound: CC(=O)N1N=C(c2ccc(Br)cc2)CC1c1ccc(Oc2ccc(Cl)cc2)cc1 (stereo not drawn) [Compound 3e, 1–(3-(4-Bromophenyl)-5–(4-(4-chlorophenoxy)phenyl)-4,5-dihydro-1H-pyrazol-1-yl) ethanone]
IC50 [1]: 5.02 ± 0.22 µM
Selectivity index [1]: 2.02
IC50 at 48 h [2]: 10.1 ± 0.62 µM

melting point: 118 to 120 °C
Compound: CC(=O)N1N=C(c2ccc(C)cc2)CC1c1ccc(Oc2ccc(Cl)cc2)cc1 (stereo not drawn) [Compound 3f, 1–(5-(4–(4-Chlorophenoxy)phenyl)-3-(p-tolyl)-4,5-dihydro-1H-pyrazol-1-yl) ethanone]
IC50 [1]: 4.77 ± 0.13 µM
Selectivity index [1]: 2.55
IC50 at 48 h [2]: 12.2 ± 0.79 µM

Compound: COc1ccc(C(=O)/C=C/c2ccc(Cl)cc2)c(Oc2cc(OC)c(OC)c(OC)c2)c1 [III]
IC50 [7]: 4.39 ± 0.26 µM

Compound: Cc1ccc(C(=O)/C=C/c2cccc(Cl)c2Oc2c([N+](=O)[O-])cc(C(F)(F)F)cc2[N+](=O)[O-])cc1 [II]
IC50 [7]: 0.03 ± 0.002 µM

Compound: O=C(/C=C/c1ccc(Br)cc1)c1c(O)cccc1OCc1ccccc1 [IV]
activity against leukemia [8]: Effective against leukemia

Compound: CCn1cc(/C=C/C(=O)c2ccc(Br)cc2)c(-c2ccc(OC)cc2)n1 [IX]
IC50 [7]: 18.7 µM

Compound: COc1ccc(/C=C/C(=O)c2ccc(OC)cc2Oc2cc(OC)c(OC)c(OC)c2)cc1 [I]
IC50 [7]: 3.44 ± 0.19 µM

Compound: O=C(/C=C/c1cc(Br)ccc1O)c1ccc(Br)cc1 [VIII]
IC50 [7]: 3.82 ± 0.022 µM

Compound: Nc1ccc(C(=O)/C=C/c2cccc(Cl)c2)cc1 [VII]
IC50 [7]: 34.2 ± 6.4 µM

Compound: O=C(/C=C/c1ccc(Oc2ccc(Cl)cc2)cc1)c1ccc(N2CCOCC2)cc1 [V]
activity against C6 and Hela cell lines [9]: Effective against C6 and Hela cell lines
